The text below walks through data of publication PMC11345829, “Discovery of Potent Isoquinolinequinone N-Oxides to Overcome Cancer Multidrug Resistance” (Journal of Medicinal Chemistry, 2024).

One assay deals with NCI-H460 cells. Description: Western blot protein expression analysis. Type of assay: cell-based, human. How it is done: Western blot analysis was performed to evaluate the expression of known proteins associated with cell proliferation, cell cycle, apoptosis, and DNA damage (Figure 10).
Figure 10 Effect of compound 25 on the NCI-H460 cellular expression of proteins involved in proliferation, cell death and DNA damage, analyzed by Western Blotting. […] (B) Graphical representation of the expression of proteins analyzed. β-actin was used as loading control. Results are the mean ± SEM from 3 independent experiments. * p ≤ 0.05, ** p ≤ 0.01 when comparing DMSO vs compound treatment.
After this treatment, cells were centrifuged at 1200 rpm for 5 min at 4 °C, and then lysed in Wynman’s buffer, as previously described,[79] containing EDTA-free protease (Roche, Basel, Switzerland) and phosphatase inhibitors (Merck Life Science) for 30 min with agitation and at 4 °C. Protein lysates were obtained after centrifugation at 13 000 rpm, for 10 min at 4 °C, and stored at −20 °C until used. A modified Lowry protocol, DC Protein assay kit (Bio-Rad, Hercules, California, USA), was used to quantify the total protein content (using a BSA standard calibration curve). The absorbance was analyzed with the Gen5 software on the microplate reader Synergy Mx, […].
Then 20 μg of protein per treatment condition was loaded and separated in 12% SDS-PAGE gels and electrophoretically transferred into nitrocellulose membranes (GE Healthcare Life Science, Chalfont St Giles, UK) for 2 h using a Mini Trans-Blot Cell system (Bio-Rad). The membranes were then stained with Ponceau S solution (PanReac AppliChem, Barcelona, Spain) to confirm that proper protein transfer occurred. Then, the membranes were blocked in Tris-buffered saline solution (TBS) pH 7.4 containing 5% (w/v) nonfat dry milk (Molico, Nestlé, Vevey, Switzerland) or 5% (w/v) BSA for 2 h at RT. The membranes were incubated for 90 min at RT with the following primary antibodies: caspase-3 (1:200; sc-56053), cyclin D1 (1:200; sc-8396), cyclin E (1:100; sc-377100), p21 (1:200; sc-6246), p53 (1:200; sc-126), PARP-1 (1:200; sc-8007), p-Histone H2A.X (1:200; sc-517348), TP53BP1 (1:100; sc-515841), and β-actin (1:200; sc-13118) from Santa Cruz Biotechnology, Dallas, Texas, USA. Following washing steps in TBS-T, the membranes were incubated with their respective secondary antibodies, antimouse IgG horseradish peroxidase (HRP) (Cytiva, Marlborough, Massachusetts, USA) or antirabbit IgG-HRP (Cytiva) for 1 h at RT in an orbital shaker. […] The signal was detected with a Fuji Medical Film Processor (FPM-100A model), and the immunoblots were digitalized using the GS-800 calibrated densitometer (Bio-Rad). Band quantification was carried out with Software Image Lab version 6.0.1 (Bio-Rad), and the molecular weight of protein bands were estimated by comparison with the bands from a protein marker (PageRuler Plus Prestained Protein Ladder, 10−250 kDa, Thermo Fisher Scientific).
A general note: A western blot detects proteins with antibodies after separation by electrophoresis.

In the next assay the test system is NSCLC cell line panel. The assay can be described thus: NCI60 five-dose GI50, NSCLC cell line panel. Type of assay: cell-based. The settings on record: Homo sapiens, read-out: GI50 range NSCLC cell line panel. The source says: The concentration−response curve generated enables the determination of three criteria, GI50 (drug concentration at which 50% of cell growth is inhibited), total growth inhibition (TGI) and LC50 (drug concentration at which 50% of tumor cells are killed) which can be used to compare effectiveness against any compound tested in the screen since its inception.
S2.1 NCI Screening Assay Experimental details
NCI Screening Assay Experimental: Cancer cell growth assays (NCI60 screening) 5,6 One-dose study: Tested compounds were initially solubilised in DMSO, diluted into RPMI 1640 and 5% fetal bovine serum/L-glutamine, and added to 96-well plates containing cell lines previously cultured for 24 h. […] The dye was then resolubilised in Tris buffer, and the colorimetric absorbance was measured (515 nm). Growth inhibition was measured relative to the response generated from proliferating cells cultured under identical conditions for 48 h. […]
Five-dose study: Serial 5 × 10-fold dilution from an initial DMSO stock solution was performed, prior to incubation at each individual concentration (10 nM, 100 nM, 1 μM, 10 μM and 100 μM). Using seven absorbance measurements (time zero (Tz), control growth (C), and test growth in the presence of drug at the five concentration levels (Ti)), the percentage growth was calculated at each of the drug concentrations levels. […]

A further assay deals with NCI-H460 spheroid. On the set-up: method as in PMID 34915071. The settings on record: 3D; cited from earlier work.

As usually defined, the GI50 is the concentration at which growth is held to half of that of the control.

In the case of `COC(=O)c1c2c(c[n+]([O-])c1C)C(=O)C=C(NCc1ccccc1)C2=O` [Compound 25], in the assay with NCI-H460 cells (48 h), the “cyclin D1 expression” value is reported as “increased the expression of cyclin D1 (although not statistically significantly)” and the p53 expression result was “slightly increased the expression of p53, although not statistically significant”. Besides, the PARP-1 expression entry in the assay on NCI-H460 cells (48 h, 0.35 and 0.7 μM) is “does not alter the expression levels of PARP-1”. Moreover, in the assay with NCI-H460 cells (48 h, 2 × GI50), the p21 expression result was “clearly increased the expression of p21”. Also, the procaspase-3 expression result with NCI-H460 cells (48 h, both 0.35 and 0.7 μM) is given as “significant decrease in procaspase-3”. In addition, the “TP53BP1 and p-histone H2A.X expression” value with NCI-H460 cells (higher concentration tested, not statistically significant) was “increased the expression levels of TP53BP1 and of the p-histone H2A.X”. The “p62, LC3-I and LC3-II expression” value in the assay with NCI-H460 cells (preliminary, data not shown) is “did not alter the expression levels of p62, LC3-I. and LC3-II”. For the same compound, the concentration for 50% growth inhibition (GI50) with NSCLC cell line panel is 174 to 397 nM.

Take `COc1cccc2c1C(=O)c1c(O)c3c(c(O)c1C2=O)C[C@@](O)(C(=O)CO)C[C@@H]3O[C@H]1C[C@H](N)[C@H](O)[C@H](C)O1` [doxorubicin, reference compound]: in the assay with NCI-H460 spheroid, the “concentration reducing NCI-H460 spheroid viability” value was 20 µM.
